From patent publication US4576942A, “Anti-allergic and anti-inflammatory bi- and tri- cyclo-1,4-thiazine derivatives, composition, and method of use therefor” (USV Pharmaceutical Corp., priority 1984, dated 1986) come the findings set out here.

The test system of one experiment is 5-lipoxygenase pathway. Nature of the experiment: Inhibitors of the Lipoxygenase Pathway (LOX), [14C]-5-HETE formation in rat neutrophils. It is filed as cell-based. Also noted: key to LOX degree of activity: I: inactive; L: low activity; M: moderate activity; H: high activity. To be noted: for IC50: Neutrophil; for LOX degree of activity: class symbol in the LOX I50 column. The method, then:
The following protocol describes an assay to detect inhibitors of the lipoxygenase pathway. Such inhibitors are believed to be capable of modulating the biosynthesis of the leukotrienes, a property believed to be useful in treating asthma and inflammatory disease states.
A suspension of rat neutrophils in buffer is incubated for 3 minutes at 30° C. with [^14 C]-arachidonic acid (AA) and Calcium Ionophore A23187. Citric Acid (2M) is used to quench the reaction. Following the addition of a trace amount of (^3 H)-5-HETE together with an excess of unlabeled 5-HETE to each tube, the mixture is extracted with chloroform/methanol. The organic layer is washed with dilute acid and an aliquot is transferred to glass tubes and dried. The residue is dissolved in a small volume of chloroform and an aliquot is spotted on silica gel TLC sheets, which are developed with an ethyl acetate/isoctane/water/acetic acid solvent system. The 5-HETE spots are visualized with iodine, cut out and placed in scintillation vials for counting. After adjusting for the extraction efficiency, the amount (pmole) of [^14 C]-5-HETE in each of the tubes is quantitated. The net pmoles of 5-HETE are obtained by substracting the pmoles of 5-HETE in the tubes containing buffer alone (blank) for the pmoles of 5-HETE in the tubes containing […]. The ability of the test compounds to modulate the activity of this enzyme is determined by a decrease or increase in the net amount of 5-HETE produced.

Experiment [1] deals with Human PMN (5-lipoxygenase pathway). Put plainly: LOX, Human PMN. It counts as cell-based. Further details: key to LOX degree of activity, Human PMN: I: inactive; L: low activity; M: moderate activity; H: high activity.
The subject of experiment [2] is leukotriene C4-induced contraction of guinea pig peripheral strips. Nature of the experiment: SRS-A (slow-reacting substance of anaphylaxis) antagonists, leukotriene C4-induced contraction of guinea pig peripheral lung strips. To be noted: for IC50: Cavia porcellus, 0.2 nM leukotriene C4, 37° C., read-out: SRS-A I50 (concentration required for 50% inhibition of 0.2 nM leukotriene C4-induced contraction); for SRS-A degree of inhibitory activity: 0.2 nM leukotriene C4, class symbol in the SRS-A I50 column. Further details: key to SRS-A degree of inhibitory activity: I: inactive; L: low activity; M: moderate activity; H: high activity. It counts as cell-based. The protocol:
Leukotrienes, the products of the 5-lipoxygenase pathway of arachidonic acid metabolism, are potent contractile agents with a variety of smooth muscle preparations. […] The following protocol describes an in vitro assay used to test compounds which specifically antagonize the actions of leukotrienes.
Peripheral strips of guinea pig lungs are prepared and hung in tissue baths (Metro # ME-5505, 10 ml) according to the published procedure (Proc. Nat'l Acad. Sci, U.S.A. Volume 77, pp. 4354-4358, 1980). The strips are thoroughly rinsed in Assay Buffer and then connected with surgical silk thread to the support rods from the tissue baths. The rods are adjusted in the baths and the strips connected to the pressure transducers (Grass FT 103 or Gould UC-3). The tissue baths are aerated with 95% oxygen-5% carbon dioxide and maintained at 37° C. The Assay Buffer has been made as follows: For each liter of buffer the following are added to approximately 800 ml of water distilled in glass--6.87 g. NaCl, 0.4 g. KCl, 2.1 g. NaHCO3, 0.14 g, NaH2 PO4.H2 O, 0.21 g. MgSO4.7H2 O, and 2.0 g. D-glucose. Then a solution of 0.368 g. CaCl2.2H2 O in 100 ml glass-distilled water is slowly added to the buffer. Sufficient water is added to adjust the volume to one liter, and the solution is aerated with 95% oxygen-5% carbon dioxide. Usually 10 liters of buffer are used for an experiment with 4 tissues.
After the tissues have been repeatedly washed and allowed to equilibrate in the tissue bath, they are challenged with 1 uM histamine. After maximum contractions have been obtained, the tissues are washed, and allowed to relax back to baseline tension. This histamine challenge procedure is repeated at least 1 to 2 more times to obtain a repeatable control response. The average response to 1 uM histamine for each tissue is used to normalize all other challenges.
Responses of each tissue to a pre-determined concentration of leukotriene are then obtained. Usually test compounds are examined initially at 30 uM on resting tension of the tissues without any added agonist or antagonist to determine if the compound has any possible intrinsic activity. The tissues are washed, and the test compound is added again. Leukotriene is added after the desired pre-incubation time. The intrinsic activity of the compounds, and their effect on leukotriene-induced contractions are then recorded.
The concentration required for 50% inhibition of 0.2 nM leukotriene C4 -induced contraction of guinea pig peripheral strips or degree of inhibitory activity for representative compounds of the present invention is shown in Table I denoted by SRS-A.

Experiment [3] deals with SRS-A (slow reacting substances of anaphylaxis), anaphylactic bronchoconstriction in guinea pigs. Put plainly: in vivo modulators of SRS-A: Bronchial Anaphylaxis in Guinea Pigs with Enhanced Leukotrines (BAGEL). Further details: species or system guinea pig; key: I: inactive; L: low activity; M: moderate activity; H: high activity. To be noted: 15 min before ovalbumin challenge. The method, then:
Representative compounds of the present invention were also tested in the following in vivo model.
This test, known as the Bronchial Anaphylaxis in Guinea Pigs with Enhanced Leukotrines (BAGEL), is based on the procedure published in Agents and Actions, Vol. 11, pp. 396-401, 1981, and is performed with guinea pigs actively immunized (14 days) with ovalbumin (2.7 mg/kg, i.p.) and B.pertussis (5×10^9 organisms) as an adjuvant. Prior to challenge with antigen (ovalbumin), the animals are anesthetized and prepared for monitoring pulmonary dynamics by whole body plethysmography. They are treated with an H1 antihistamine (methapyrilene, 2 mg/kg, i.v.) and cyclooxygenase inhibitor (indomethacin; 20 mg/kg, i.p.) in order to enhance the SRS-A component of anaphylactic bronchoconstriction. Bronchoconstriction is quantified as the maximum increase in airway resistance following antigen challenge. The drug is administered either i.p. 10 minutes before challenge, or i.d. 15 minutes before challenge.

Setting [4] is: arachidonic acid + Ca ionophore A23187, 30° C., read-out: LOX I50 (concentration required for 50% inhibition of the 5-lipoxygenase pathway).

Where two headings read alike, the source gives them in different places.

As for `CCOC(=O)C(Cl)=C1CSc2ncccc2N1`, the IC50 with 5-lipoxygenase pathway (setting [4]) worked out at 1200 nM; in experiment [1] (Homo sapiens, read-out: LOX I50, Human PMN), 1000 nM; in experiment [2] it was 20000 nM. In experiment [3] (200 mg/kg i.d.), the BAGEL activity result is on record as “M-H”.

Regarding `CCOC(=O)c1c2csc3ccccc3n-2c(=O)c1O`, in the experiment on 5-lipoxygenase pathway (setting [4]), the IC50 was found to be 12000 nM. The “SRS-A degree of inhibitory activity” value in experiment [2] was “I”.

In the case of `O=C(C=C1CSc2ccccc2N1)Nc1ccccc1`, the results for the IC50 (with 5-lipoxygenase pathway (setting [4]); in experiment [2]) were 1600 nM and 18000 nM, respectively.

Regarding `N#CC(C(N)=O)=C1CSc2ccccc2N1`, in the experiment with 5-lipoxygenase pathway, the “LOX degree of activity” value is on record as “I”. In addition, the IC50 in experiment [2] is 25000 nM.

For the molecule `CCOC(=O)C=C1CSc2ccccc2N1`, the “LOX degree of activity” value with 5-lipoxygenase pathway is reported as “I”. In experiment [2], the “SRS-A degree of inhibitory activity” value is recorded as “M”.

With `O=C(C=C1CSc2ccccc2N1)Nc1ccccc1Cl`, the “LOX degree of activity” value in the experiment with 5-lipoxygenase pathway was “M”.

For the molecule `CCOC(=O)C(Cl)=C1CSc2ccccc2N1`, the IC50 with 5-lipoxygenase pathway (setting [4]) came to 1700 nM. The “SRS-A degree of inhibitory activity” value in experiment [2] was “M”. In addition, the BAGEL activity result in experiment [3] (200 mg/kg i.d.) was “L”.

`CCOC(=O)C=C(C(=O)OCC)C(C(=O)OCC)=C1CSc2ccccc2N1`: the IC50 in the experiment with 5-lipoxygenase pathway (cell prints 3μ .M, read-out: LOX I50, unit printed in the cell) was 3000 nM. Also, the “LOX degree of activity, Human PMN” value in experiment [1] (Human PMN, 135 μM) is “L”. Also, the “SRS-A degree of inhibitory activity” value in experiment [2] was “I”. Also, in experiment [3] (30 mg/kg i.d.), the BAGEL activity entry is recorded as “H”.
